Here are results for eleven compounds from patent US10501494B2, “Uses of peptides to treat brain injury and disease” (priority 2013, dated 2019).

Like-named read-outs stand apart in the source and are kept apart here.

The test system of test [1] is chemokine receptor 8 (CCR8). The test is described as follows: Blocking of chemokine receptor 8. In kind it is cell-based. From the text:
The peptides share activity to block diverse chemokine receptors. […] Thus again, with a different receptor target, the all-D peptide performs very similarly to its mostly L-amino acid prototype first described in Pert, 1986. (FIG. 3).

Test [2] can be described thus: Survival of MethA ascites tumor-bearing mice treated with LPS. The test is classed as in vivo. Conditions: 1 mg/Kg, 50 μgm LPS i.p.; vehicle control 5/20. Here is the method: Associated with the injection of LPS is the extensive production of tumor necrosis factor alpha (TNF-α). Mice injected with recombinant human TNF-α develop pilo erection of the hair (ruffling), diarrhea and a withdrawn and unkempt appearance, followed by death if sufficient amounts are given. Rats treated with TNF become hypotensive, tachypneic and die of sudden respiratory arrest. Administration of DAPTA (1 mg/Kg) to MethA ascites tumor-bearing mice that were treated with 50 μgm LPS by i.p. injection, had better survival (15/20 in the DAPTA treated group compared to 5/20 in the vehicle control treated group). Thus DAPTA blocks septic shock via innate immune pathways, like the Toll receptors, that cause inflammation in the brain and that are typically activated in injuries.

Test [3] addresses CCL2 (MCP-1) chemotaxis, CCR5/CCR2 (Homo sapiens, UniProt P41597). To be noted: human monocytes, FIG. 1.
Text: Triplicate determinations were made and results are expressed as the mean plus or minus SEM. The experiment shown is a direct comparison among all RAPs. Statistical analysis was by unpaired t-test, with significance set at the p<0.01 (*) level for difference from CCL2 only chemotaxis.
The subject of test [4] is microglial and astrocytes. To be noted: daily peripheral administration, hippocampus; cited from earlier work.
For test [5], the system named is inflammatory cytokines. To be noted: Hu; Ruff, 2003; cited from earlier work.
Test [6] deals with inflammatory cytokines. Conditions: Rat; unpublished.
Test [7] has as its system inflammatory cytokines. Conditions: Rat; Padi, 2012; cited from earlier work.
The conditions of test [8]: nerve injury model; Padi; cited from earlier work.
A further test concerns the target CCL2/CCR2 (Homo sapiens, UniProt P41597). Conditions: human monocytes.
The target in another test is MIP-1β (CCL4)/CCR5 (Homo sapiens, UniProt P51681). To be noted: low (sub-pM) concentrations, MIP-1β 50 ng/mL, monocytes treated with GM-CSF for 48 hours.
Another test concerns the target T1, CCR2 (MCP-1) (Homo sapiens, UniProt P41597).
T1 construct: Purified human monocytes were treated with 20 pM of All-D-pentapeptides; endogenous in cells; host or cells: purified human monocytes
The test is described as follows: MCP-1 elicited chemotaxis of human monocytes, all-D-pentapeptides (FIG. 2). The test is classed as cell-based. Conditions: 20 pM peptide for 30 minutes, MCP-1 0.6 nM for 2 hours, purified human monocytes. An excerpt: A representative experiment is shown comprising triplicate determinations and is presented as relative fluorescence units, Mean±SEM.

T1 sequence (P41597 whole entry): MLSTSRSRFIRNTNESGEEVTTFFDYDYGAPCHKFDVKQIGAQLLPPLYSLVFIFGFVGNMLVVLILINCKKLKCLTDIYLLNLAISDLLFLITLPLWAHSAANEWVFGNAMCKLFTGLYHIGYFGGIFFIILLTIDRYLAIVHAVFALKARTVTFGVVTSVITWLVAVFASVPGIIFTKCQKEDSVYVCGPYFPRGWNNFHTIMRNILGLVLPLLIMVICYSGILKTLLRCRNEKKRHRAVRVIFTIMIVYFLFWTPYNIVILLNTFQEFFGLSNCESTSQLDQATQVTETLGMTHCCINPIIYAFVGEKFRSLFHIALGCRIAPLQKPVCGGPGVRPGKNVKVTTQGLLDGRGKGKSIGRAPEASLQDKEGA
CCL2 (MCP-1) chemotaxis, CCR5/CCR2, sequence (P41597 whole entry): as above
CCL2/CCR2, sequence (P41597 whole entry): as above
MIP-1β (CCL4)/CCR5, sequence (P51681 whole entry): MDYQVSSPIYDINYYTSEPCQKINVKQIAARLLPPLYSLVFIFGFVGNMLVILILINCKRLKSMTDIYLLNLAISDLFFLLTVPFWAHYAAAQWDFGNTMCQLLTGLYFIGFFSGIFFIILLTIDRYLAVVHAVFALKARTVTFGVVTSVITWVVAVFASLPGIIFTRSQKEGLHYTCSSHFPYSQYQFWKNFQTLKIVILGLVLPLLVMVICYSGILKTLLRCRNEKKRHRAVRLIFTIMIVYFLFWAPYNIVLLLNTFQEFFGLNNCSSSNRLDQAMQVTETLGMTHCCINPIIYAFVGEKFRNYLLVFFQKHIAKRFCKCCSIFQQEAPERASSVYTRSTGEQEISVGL
Text for MIP-1β (CCL4)/CCR5: It is compared for biopotency with an all-D amino acid close analog whereby all of the amino acids are made in the D form (RAP-310) to block the CCR5 chemokine receptors.
Data are the average of triplicate determinations. Data are presented as Mean±SEM.

Consider `C[C@@H](N)C(=O)N[C@@H](CO)C(=O)N[C@H](C(=O)N[C@H](C(=O)N[C@H](C(=O)N[C@@H](CC(N)=O)C(=O)N[C@@H](Cc1ccc(O)cc1)C(=O)N[C@H](C(N)=O)[C@@H](C)O)[C@@H](C)O)[C@@H](C)O)[C@@H](C)O` [RAP-101, D-Ala1-STTTNYT-NH2], for which the “blocking of CCR8” value in [1] was “blocks”. In test [2], the survival is 15/20. The “potency to block CCL2 (MCP-1) chemotaxis” value in test [3] is given as “most potent”. In addition, in test [4], the “inflammatory response induced by LPS (number and reactive state of microglial and astrocytes, NFkB expression)” value is on record as “dramatically attenuated”. In the test on inflammatory cytokines [5], the IL-1 change result was “decrease”, the IL-6 change result was “decrease”, the IL-8 change result was “decrease” and the TNF-α change result is recorded as “decrease”.
With `C[C@H](O)[C@@H](N)C(=O)N[C@@H](C(=O)N[C@H](CC(N)=O)C(=O)N[C@H](Cc1ccc(O)cc1)C(=O)N[C@@H](C(=O)O)[C@H](C)O)[C@H](C)O` [RAP-103, All-D-TTNYT], in the test with inflammatory cytokines [6], the CCL2 change result is reported as “decrease”, the CCL3 change result is listed as “decrease”, the CCR2 change entry is “decrease” and the CCR5 change result is listed as “decrease”. Besides, in the test on inflammatory cytokines [6], the MCP-1 change entry is recorded as “decrease”, the MIP-1α change result is “decrease” and the TNF-α change entry was “decrease”. Also, in the test on inflammatory cytokines [7], the IL-1β change result was “decrease” and the IL-6 change entry is listed as “decrease”. In test [8], the “inflammation, cytokine secretion and monocyte infiltration” value was “blocks”.
`C[C@H](O)[C@@H](NC(=O)[C@@H](Cc1ccc(O)cc1)NC(=O)[C@@H](CC(N)=O)NC(=O)[C@H](NC(=O)[C@H](NC(=O)[C@H](NC(=O)[C@@H](CO)NC(=O)[C@@H](C)N)[C@H](C)O)[C@H](C)O)[C@H](C)O)C(=O)O` [RAP-310]: the “blocking of CCR8” value in test [1] is “comparable potency”. Also, the “loss of potency in blocking CCL2-elicited chemotaxis compared to RAP-101” value on CCL2/CCR2 was “minimal loss of potency”. Besides, on MIP-1β (CCL4)/CCR5, the “potency to block CCR5-mediated human monocyte chemotaxis” value is reported as “comparable potency”.
For Asn-Thr-Arg-Tyr-Arg, the “inhibition of MCP-1 elicited chemotaxis” value against CCR2 (MCP-1) is reported as “efficacious”.
On the same count and under the same terms, then “Asn-Thr-Ser-Tyr-Arg (NTSYR; Human immunodeficiency virus)”, with “efficacious”.
On to “Asn-Thr-Ser-Tyr-Gly (NTSYG; Human immunodeficiency virus)”, for which the “inhibition of MCP-1 elicited chemotaxis” value in the test with CCR2 (MCP-1) was “efficacious”.
As for “Glu-Thr-Trp-Tyr-Ser (ETWYS; Human immunodeficiency virus)”, the “inhibition of MCP-1 elicited chemotaxis” value in the test with CCR2 (MCP-1) is “efficacious”.
For the compound “Ile-Asn-Asn-Tyr-Thr (INNYT; Human immunodeficiency virus)”, the “inhibition of MCP-1 elicited chemotaxis” value in the test with CCR2 (MCP-1) is listed as “efficacious”.
For the compound “Ile-Asp-Asn-Tyr Thr (IDNYT; Human immunodeficiency virus)”, the “inhibition of MCP-1 elicited chemotaxis” value with CCR2 (MCP-1) is listed as “efficacious”.
As to “Ser-Ser-Thr-Tyr-Arg (SSTYR; Human immunodeficiency virus)”, in the test with CCR2 (MCP-1), the “inhibition of MCP-1 elicited chemotaxis” value is given as “efficacious”.
As for “Thr-Thr-Ser-Tyr-Thr (TTSYT; Human immunodeficiency virus)”, the “inhibition of MCP-1 elicited chemotaxis” value with CCR2 (MCP-1) is “efficacious”.
